In assay [6] the test system is VP8* P[6]. In words: ELISA-like binding assay to biotinylated HBGAs. The conditions noted are these: biotinylated PAA glycan 2 μg/ml, VP8* 10 μg/ml. The arrangement: species or system human rotavirus. For orientation: ELISA stands for enzyme-linked immunosorbent assay.
Assay [1] has as its system VP8* P[8]c binding to LNB. Briefly: Binding blocking assay, immobilized LNB. Also on record: species or system human rotavirus. The conditions noted are these: soluble sugar at 20 mM. As to the method: To confirm the binding of the VP8* from the P[8] genotype to the H type-1 precursor LNB, a blocking assay was performed using soluble LNB and its related disaccharide galacto-N-biose (Gal-β-1,3-GalNAc; GNB) produced and purified in our laboratory as previously described.
Streptavidin microtiter plates were coated with biotinylated H type-1 antigen or LNB at 2 μg/ml with water and incubated for 1 hour at 37°C, followed by an overnight incubation at 4°C. Blocking assays were performed in parallel, using glass tubes containing the P[8]c and P[8]Wa VP8* protein at their EC50 for each ligand and 20 mM of each of the soluble disaccharides (LNB and GNB) and monosaccharides (D-galactose, GlcNAc and GalNAc). A positive binding control without sugar was also included. The tubes containing the mixes of VP8* with sugars were maintained 1 hour at 37°C, followed by an overnight incubation at 4°C. The next day the coated streptavidin plates were washed with PBS-T, the VP8*-sugar solutions were added to the plates and incubated during 4 hours at 4°C. The plates were washed three times with PBS-T and detection of the interactions was performed as described above. The results are presented as the percentage (%) of binding of each condition compared to the binding of the positive binding control (without blocking sugar). All experiments were performed in triplicate.

For assay [2], the system named is rotavirus Wa strain (G1P[8]) in MA104 cells. Briefly: Blocking of rotavirus infection in MA104 cells (fluorescent focus assay). The conditions noted are these: sugar at 5 mg/mL. It is filed as cell-based, human rotavirus. As to the method: The G1P[8] Wa strain was tested on MA104 cells. The sugars LNB, GNB, GlcNAc, GalNAc, D-galactose and L-fucose were tested for their effect on rotavirus infectivity. The oligosaccharides were previously heat sterilized at 99°C for 10 min and then dissolved in serum-free DMEM containing 1 μg/ml trypsin. Serum-free DMEM containing […] oligosaccharide was used as a control in each experiment.
The effect of different mono- and disaccharides on rotavirus infectivity was assessed through standard fluorescent focus assays on MA104 cells. The dilution of Wa virus stocks that yielded ~150 focus-forming units/well was first established. Then, sugars were added during virus inoculation at a final concentration of 5 mg/ml, incubated for 1 hour, and unbound virus was removed by washing with FBS-DMEM. The cells were allowed to be infected for 16h, washed once with PBS and fixed with 100% methanol. A mouse anti-VP6 primary antibody (1:50 dilution in PBS containing 3% BSA) was added and incubation proceeded for 30 min at room temperature with gentle rotation. […] Individual fluorescence foci were counted on an inverted fluorescence microscope with a FITC-compatible filter. […] Virus titer measured in the absence of oligosaccharides was considered to be 100% infectivity, and changes in virus titer in the presence of sugars were expressed as percentage of infectivity compared with no sugar treatment.

For `CC(=O)NC1C(O)OC(CO)C(O)C1OC1OC(CO)C(O)C(O)C1OC1OC(C)C(O)C(O)C1O` (stereo not drawn) [H1, Fuc-α1,2-Gal-β1,3-GlcNAc], the “binding (ELISA-like)” value in the assay with VP8* P[6] is given as “recognized”.

Consider `CC(=O)NC1C(O)OC(CO)C(O)C1OC1OC(CO)C(O)C(O)C1O` (stereo not drawn) [LNB, Gal-β1,3-GlcNAc], for which the “reduction of the binding of VP8* P[8]c to LNB” value in assay [1] is given as 52.2%. The “reduction of viral infection” value in assay [2] is given as 33%.

Source of the values: paper PMC6609034, “Unraveling the role of the secretor antigen in human rotavirus attachment to histo-blood group antigens” (PLoS Pathogens, 2019).
